From patent US9693556B2, “Herbicidal pyridazinone derivatives” (SYNGENTA LIMITED, priority 2011, dated 2017)

Legend:
Type in all cases: in vivo
Solanum nigrum (SOLNI) [1] = assay: Post-emergence herbicidal glasshouse test on Solanum nigrum; conditions: post-emergence, 1000 g/h, evaluated after 13 days, five point scale
In short: (§1)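 Steps: sow seeds in standard soil; cultivate 1 d (pre-) or 8 d (post-emergence) at 24/16 °C, 14 h light, 65% humidity; spray 1000 g/h in acetone/water plus Tween 20; grow on, watering twice daily; score percentage damage after 13 d.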

[2] = system: Alopecurus myosuroides (ALOMY); assay: Post-emergence herbicidal glasshouse test on Alopecurus myosuroides; conditions: post-emergence, 1000 g/h, evaluated after 13 days, five point scale
In short: as §1

[3] = system: Echinochloa crus-galli (ECHCG); assay: Post-emergence herbicidal glasshouse test on Echinochloa crus-galli; conditions: post-emergence, 1000 g/h, evaluated after 13 days, five point scale
In short: as §1

[4] = system: Amaranthus retoflexus (AMARE); assay: Post-emergence herbicidal glasshouse test on Amaranthus retoflexus; conditions: post-emergence, 1000 g/h, evaluated after 13 days, five point scale
In short: as §1

[5] = system: Ipomoea hederacea (IPOHE); assay: Pre-emergence herbicidal glasshouse test on Ipomoea hederacea; conditions: pre-emergence, 1000 g/h, evaluated after 13 days, five point scale
In short: as §1

Solanum nigrum (SOLNI) [6] = assay: Pre-emergence herbicidal glasshouse test on Solanum nigrum; conditions: pre-emergence, 1000 g/h, evaluated after 13 days, five point scale
In short: as §1

[7] = system: Amaranthus retoflexus (AMARE); assay: Pre-emergence herbicidal glasshouse test on Amaranthus retoflexus; conditions: pre-emergence, 1000 g/h, evaluated after 13 days, five point scale
In short: as §1

Setaria faberi (SETFA) [8] = assay: Pre-emergence herbicidal glasshouse test on Setaria faberi; conditions: pre-emergence, 1000 g/h, evaluated after 13 days, five point scale
In short: as §1

[9] = system: Alopecurus myosuroides (ALOMY); assay: Pre-emergence herbicidal glasshouse test on Alopecurus myosuroides; conditions: pre-emergence, 1000 g/h, evaluated after 13 days, five point scale
In short: as §1

[10] = system: Ipomoea hederacea (IPOHE); assay: Post-emergence herbicidal glasshouse test on Ipomoea hederacea; conditions: post-emergence, 1000 g/h, evaluated after 13 days, five point scale
In short: as §1

[11] = system: Echinochloa crus-galli (ECHCG); assay: Pre-emergence herbicidal glasshouse test on Echinochloa crus-galli; conditions: pre-emergence, 1000 g/h, evaluated after 13 days, five point scale
In short: as §1

Setaria faberi (SETFA) [12] = assay: Post-emergence herbicidal glasshouse test on Setaria faberi; conditions: post-emergence, 1000 g/h, evaluated after 13 days, five point scale
In short: as §1

SMILES	herbicidal damage, POST Application SOLNI (Solanum nigrum (SOLNI) [1])	herbicidal damage, POST Application ALOMY [2]	herbicidal damage, POST Application ECHCG [3]	herbicidal damage, POST Application AMARE [4]	herbicidal damage, PRE Application IPOHE [5]	herbicidal damage, PRE Application SOLNI (Solanum nigrum (SOLNI) [6])	herbicidal damage, PRE Application AMARE [7]	herbicidal damage, PRE Application SETFA (Setaria faberi (SETFA) [8])	herbicidal damage, PRE Application ALOMY [9]	herbicidal damage, POST Application IPOHE [10]	herbicidal damage, PRE Application ECHCG [11]	herbicidal damage, POST Application SETFA (Setaria faberi (SETFA) [12])
Cc1nc2nc(C(F)(F)F)c(-c3cnn(C)c(=O)c3O)cc2cc1F [Compound 1.151]	5 (5=80-100% damage)	5 (5=80-100% damage)	5 (5=80-100% damage)	5 (5=80-100% damage)	5 (5=80-100% damage)	4 (4=60-79% damage)	5 (5=80-100% damage)	2 (2=20-39% damage)	2 (2=20-39% damage)	5 (5=80-100% damage)	5 (5=80-100% damage)	5 (5=80-100% damage)
Cn1ncc(-c2cccn(-c3cccc(C(F)(F)F)c3)c2=O)c(O)c1=O [Compound 1.152]	1 (1=0-19% damage)	1 (1=0-19% damage)	1 (1=0-19% damage)	1 (1=0-19% damage)	1 (1=0-19% damage)	2 (2=20-39% damage)	2 (2=20-39% damage)	5 (5=80-100% damage)	4 (4=60-79% damage)	2 (2=20-39% damage)	2 (2=20-39% damage)	1 (1=0-19% damage)
COc1ccc(-c2cnn(C)c(=O)c2O)c(OC)n1 [Compound 1.153]	4 (4=60-79% damage)	1 (1=0-19% damage)	1 (1=0-19% damage)	2 (2=20-39% damage)	3 (3=40-59% damage)	2 (2=20-39% damage)	2 (2=20-39% damage)	1 (1=0-19% damage)	1 (1=0-19% damage)	2 (2=20-39% damage)	2 (2=20-39% damage)	1 (1=0-19% damage)
Cc1ccc2cc(-c3cnn(C)c(=O)c3O)c(C(F)(F)F)nc2n1 [Compound 1.154]	5 (5=80-100% damage)	4 (4=60-79% damage)	5 (5=80-100% damage)	5 (5=80-100% damage)	5 (5=80-100% damage)	2 (2=20-39% damage)	5 (5=80-100% damage)	2 (2=20-39% damage)	2 (2=20-39% damage)	5 (5=80-100% damage)	5 (5=80-100% damage)	5 (5=80-100% damage)
CS(=O)(=O)c1ccc(-c2cnn(C3CC3)c(=O)c2O)c(Cl)c1C1=NOCC1 [Compound 1.158]	5 (5=80-100% damage)	5 (5=80-100% damage)	5 (5=80-100% damage)	5 (5=80-100% damage)	3 (3=40-59% damage)	4 (4=60-79% damage)	5 (5=80-100% damage)	3 (3=40-59% damage)	3 (3=40-59% damage)	5 (5=80-100% damage)	5 (5=80-100% damage)	5 (5=80-100% damage)
Cn1ncc(-n2ccc(C(F)(F)F)c(-c3ccccc3Cl)c2=O)c(O)c1=O [Compound 1.159]	5 (5=80-100% damage)	4 (4=60-79% damage)	5 (5=80-100% damage)	5 (5=80-100% damage)	1 (1=0-19% damage)	5 (5=80-100% damage)	5 (5=80-100% damage)	5 (5=80-100% damage)	5 (5=80-100% damage)	5 (5=80-100% damage)	5 (5=80-100% damage)	5 (5=80-100% damage)
Cn1ncc(-c2cc(Br)c(Br)cc2S(C)(=O)=O)c(O)c1=O [Compound 1.160]	5 (5=80-100% damage)	3 (3=40-59% damage)	5 (5=80-100% damage)	5 (5=80-100% damage)	2 (2=20-39% damage)	4 (4=60-79% damage)	5 (5=80-100% damage)	1 (1=0-19% damage)	1 (1=0-19% damage)	5 (5=80-100% damage)	5 (5=80-100% damage)	4 (4=60-79% damage)
Cn1ncc(-c2c(S(C)(=O)=O)ccc(Br)c2Br)c(O)c1=O [Compound 1.161]	4 (4=60-79% damage)	3 (3=40-59% damage)	4 (4=60-79% damage)	5 (5=80-100% damage)	1 (1=0-19% damage)	1 (1=0-19% damage)	3 (3=40-59% damage)	1 (1=0-19% damage)	1 (1=0-19% damage)	2 (2=20-39% damage)	1 (1=0-19% damage)	4 (4=60-79% damage)
C#CCn1ncc(-c2ccc(S(C)(=O)=O)c(C3=NOCC3)c2C)c(O)c1=O [Compound 1.163]	5 (5=80-100% damage)	5 (5=80-100% damage)	5 (5=80-100% damage)	5 (5=80-100% damage)	4 (4=60-79% damage)	5 (5=80-100% damage)	5 (5=80-100% damage)	5 (5=80-100% damage)	5 (5=80-100% damage)	5 (5=80-100% damage)	5 (5=80-100% damage)	5 (5=80-100% damage)
Cn1ncc(-c2cc3cc(N4CCOCC4)cnc3nc2C(F)(F)F)c(O)c1=O [Compound 1.164]	5 (5=80-100% damage)	1 (1=0-19% damage)	5 (5=80-100% damage)	5 (5=80-100% damage)	4 (4=60-79% damage)	2 (2=20-39% damage)	3 (3=40-59% damage)	2 (2=20-39% damage)	1 (1=0-19% damage)	5 (5=80-100% damage)	4 (4=60-79% damage)	5 (5=80-100% damage)
